Where “and” joins values, the source holds several entries; their conditions need not be identical. Identical values can stand only once. ± gives the uncertainty stated by the source.

The term viscosity denotes the internal friction of a fluid under shear. Lower therefore signals easy flow.

As to `Cn1ccnc1`, the viscosity (298.15 K, 100 kPa) was 1.778 ± 0.18 mPa·s and 1.778 ± 0.073 mPa·s; the viscosity (298.15 K, 101 kPa) amounted to 1.68 ± 0.1 mPa·s; the viscosity (308.15 K, 100 kPa) was 1.482 ± 0.15 mPa·s and 1.482 ± 0.061 mPa·s; the viscosity (308.15 K, 101 kPa) is 1.382 ± 0.012 mPa·s and 1.415 ± 0.086 mPa·s; the viscosity (318.15 K, 100 kPa) was 1.267 ± 0.13 mPa·s and 1.267 ± 0.052 mPa·s; the viscosity (318.15 K, 101 kPa) worked out at 1.213 ± 0.073 mPa·s.

In the case of `CCCC[P+](CC)(CC)CC.N#Cc1ccc[n-]1`, the viscosity is 187 ± 27 mPa·s (293.15 K, 100 kPa); 137 ± 19 mPa·s (298.15 K, 100 kPa); 104 ± 15 mPa·s (303.15 K, 100 kPa); 62 ± 9 mPa·s (313.15 K, 100 kPa).

As for `CCCCCCCCCCCCCCCCCC[P+](CCCC)(CCCC)CCCC.N#Cc1ccc[n-]1`, the viscosity stood at 742 ± 110 mPa·s (293.15 K, 100 kPa); 519 ± 77 mPa·s (298.15 K, 100 kPa); 379 ± 55 mPa·s (303.15 K, 100 kPa); 208 ± 30 mPa·s (313.15 K, 100 kPa).

For `CCCCCCc1ccccc1`, where the note is “303.15 K, 102 kPa”, the viscosity is reported as 1.4 ± 0.01 mPa·s.

`CN(C)c1ccccc1`: the viscosity by setting is: (293.15 K, 100 kPa) 1.415 ± 0.063 mPa·s; (298 K, 101 kPa) 1.283 ± 0.033 mPa·s; (298 K, 101.3 kPa) 1.282 ± 0.035 mPa·s; (298.15 K, 100 kPa) 1.302 ± 0.058 mPa·s; (303 K, 101 kPa) 1.18 ± 0.031 mPa·s; (303 K, 101.3 kPa) 1.177 ± 0.032 mPa·s. In addition, the viscosity reads like this: (303.15 K, 100 kPa) 1.206 ± 0.054 mPa·s; (303.15 K, 101 kPa) 1.18 ± 0.03 mPa·s and 1.177 ± 0.025 mPa·s and 1.203 ± 0.032 mPa·s; (308 K, 101 kPa) 1.096 ± 0.029 mPa·s; (308 K, 101.3 kPa) 1.1 ± 0.03 mPa·s; (308.15 K, 100 kPa) 1.123 ± 0.05 mPa·s; (313 K, 101 kPa) 1.02 ± 0.027 mPa·s. Also, the viscosity by setting is: (313 K, 101.3 kPa) 1.02 ± 0.028 mPa·s; (313.15 K, 100 kPa) 1.056 ± 0.047 mPa·s; (313.35 K, 101 kPa) 1.021 ± 0.01 mPa·s; (318 K, 101 kPa) 0.968 ± 0.025 mPa·s; (318 K, 101.3 kPa) 0.967 ± 0.027 mPa·s; (318.15 K, 100 kPa) 0.9805 ± 0.044 mPa·s. Further, the viscosity reads like this: (318.15 K, 101 kPa) 0.931 ± 0.02 mPa·s and 0.8294 ± 0.083 mPa·s and 0.9484 ± 0.025 mPa·s; (323.15 K, 100 kPa) 0.9197 ± 0.041 mPa·s; (323.15 K, 101 kPa) 0.854 ± 0.018 mPa·s.

`CCCCC(C)CC` (stereo not given): the viscosity came to 0.512 ± 0.011 mPa·s (293.15 K, 100 kPa); 0.485 ± 0.011 mPa·s (298.15 K, 100 kPa); 0.462 ± 0.01 mPa·s (303.15 K, 100 kPa); 0.44 ± 0.01 mPa·s (308.15 K, 100 kPa); 0.422 ± 0.009 mPa·s (313.15 K, 100 kPa).

Consider `O=C1CCCCCO1`, for which the viscosity runs as follows: (303.15 K, 101 kPa) 4.885 ± 0.32 mPa·s; (308.15 K, 101 kPa) 4.324 ± 0.28 mPa·s; (313.15 K, 101 kPa) 3.818 ± 0.25 mPa·s; (318.15 K, 101 kPa) 3.42 ± 0.23 mPa·s.

Turning to `CCCCC(C)O` (stereo not given), the viscosity is, setting by setting: (298.15 K, 101.33 kPa) 4.047 ± 0.037 mPa·s and 4.047 ± 0.032 mPa·s; (303.15 K, 100 kPa) 3.29 ± 0.17 mPa·s; (308.15 K, 100 kPa) 2.71 ± 0.14 mPa·s; (313.15 K, 100 kPa) 2.28 ± 0.12 mPa·s; (318.15 K, 100 kPa) 1.93 ± 0.1 mPa·s.

Turning to `[2H]O[2H]`, the viscosity was 1.253 ± 0.022 mPa·s (293.15 K, 101 kPa); 1.128 ± 0.03 mPa·s (297.15 K, 101 kPa); 1.072 ± 0.029 mPa·s (299.15 K, 101 kPa); 0.994 ± 0.021 mPa·s and 1.05 ± 0.028 mPa·s (300.15 K, 101 kPa); 1.026 ± 0.027 mPa·s (301.15 K, 101 kPa); 1 ± 0.027 mPa·s (302.15 K, 101 kPa). Moreover, the viscosity was 0.973 ± 0.017 mPa·s (303.1 K, 101 kPa); 0.981 ± 0.026 mPa·s (303.15 K, 101 kPa); 0.964 ± 0.026 mPa·s (304.15 K, 101 kPa); 0.884 ± 0.021 mPa·s and 0.942 ± 0.025 mPa·s (305.15 K, 101 kPa); 0.924 ± 0.025 mPa·s (306.15 K, 101 kPa); 0.901 ± 0.024 mPa·s (307.15 K, 101 kPa). The compound also gave a viscosity (308.15 K, 101 kPa) of 0.879 ± 0.023 mPa·s; a viscosity (309.15 K, 101 kPa) of 0.861 ± 0.023 mPa·s; a viscosity (310.15 K, 101 kPa) of 0.842 ± 0.022 mPa·s; a viscosity (311.15 K, 101 kPa) of 0.826 ± 0.022 mPa·s; a viscosity (312.15 K, 101 kPa) of 0.809 ± 0.022 mPa·s; a viscosity (313.1 K, 101 kPa) of 0.785 ± 0.014 mPa·s. Besides, the viscosity by setting is: (313.15 K, 101 kPa) 0.791 ± 0.021 mPa·s; (323.1 K, 101 kPa) 0.649 ± 0.013 mPa·s.

As for `FC(F)(F)c1ccccc1`, the viscosity by setting is: (298.15 K, 101 kPa) 0.53 ± 0.03 mPa·s; (298.15 K, 101.33 kPa) 0.5524 ± 0.0057 mPa·s; (323.15 K, 101 kPa) 0.46 ± 0.02 mPa·s.

Take `CC[n+]1cc[nH]c1.O=S(=O)([N-]S(=O)(=O)C(F)(F)F)C(F)(F)F`: the viscosity (297.55 K, 101 kPa) worked out at 57.1 ± 1.9 mPa·s.

As to `CCC(C)(C)O`, the viscosity was 3.506 ± 0.091 mPa·s and 3.532 ± 0.032 mPa·s and 4.413 ± 0.038 mPa·s (298.15 K, 101 kPa); 3.52 ± 0.096 mPa·s (298.15 K, 101.3 kPa); 2.87 ± 0.079 mPa·s (303.15 K, 101.3 kPa); 2.854 ± 0.034 mPa·s (303.15 K, 101.33 kPa); 2.37 ± 0.065 mPa·s (308.15 K, 101.3 kPa); 1.96 ± 0.054 mPa·s (313.15 K, 101.3 kPa). Moreover, the viscosity (313.15 K, 101.33 kPa) was found to be 1.976 ± 0.023 mPa·s; the viscosity (318.15 K, 101 kPa) was determined as 1.681 ± 0.044 mPa·s; the viscosity (323.15 K, 101.33 kPa) is given as 1.416 ± 0.017 mPa·s.

Consider `C=CC#N`, for which the viscosity runs as follows: (293.15 K, 101 kPa) 0.362 ± 0.01 mPa·s; (298.15 K, 101 kPa) 0.342 ± 0.009 mPa·s; (298.15 K, 101.33 kPa) 0.339 ± 0.005 mPa·s; (303.15 K, 101 kPa) 0.325 ± 0.009 mPa·s; (303.15 K, 101.3 kPa) 0.3111 ± 0.003 mPa·s and 0.3111 ± 0.0049 mPa·s; (303.15 K, 101.33 kPa) 0.324 ± 0.005 mPa·s and 0.324 ± 0.01 mPa·s and 0.326 ± 0.005 mPa·s. Also, the viscosity was 0.76 ± 0.01 mPa·s and 0.53 ± 0.005 mPa·s and 0.584 ± 0.005 mPa·s (307.4 K, 101.33 kPa); 0.3296 ± 0.0037 mPa·s (308.15 K, 101 kPa); 0.305 ± 0.008 mPa·s (313.15 K, 101 kPa); 0.287 ± 0.008 mPa·s (323.15 K, 101 kPa).

The compound `COC(C)OC` yielded a viscosity (298.15 K, 101 kPa) of 4.04 mPa·s.

For the compound `CC[N+](C)(CC)CCOC.O=S(=O)([N-]S(=O)(=O)C(F)(F)F)C(F)(F)F`, the viscosity reads like this: (293.15 K, 101 kPa) 162.2 ± 6.7 mPa·s; (298.15 K, 101 kPa) 119.2 ± 4 mPa·s; (303.15 K, 101 kPa) 89.7 ± 2.4 mPa·s; (308.15 K, 101 kPa) 67.72 ± 1.5 mPa·s; (313.15 K, 101 kPa) 53.02 ± 1.1 mPa·s; (318.15 K, 101 kPa) 40.98 ± 0.87 mPa·s. In addition, under “323.15 K, 101 kPa”, the viscosity is 33.06 ± 0.7 mPa·s.

Compound `Cc1ccc(C(C)C)cc1` registered a viscosity (293.15 K, 101 kPa) of 0.826 ± 0.016 mPa·s.

As to `CC(CC(C)(C)C)CC(C)(C)C`, the viscosity is listed as 1.32 ± 0.02 mPa·s (293.15 K, 102 kPa); 1.217 ± 0.018 mPa·s (298.15 K, 101.33 kPa); 0.956 ± 0.021 mPa·s (313.15 K, 102 kPa); 0.828 ± 0.021 mPa·s (323.15 K, 102 kPa).

As for `CC1CCC(O)CC1` (stereo not given), the viscosity (293.15 K, 101 kPa) stood at 30.4 ± 0.9 mPa·s.

For `CC(CC(C)(C)C)CP(=O)([O-])CC(C)CC(C)(C)C.CCCCCCCCCCCCCC[P+](CCCCCC)(CCCCCC)CCCCCC`, the viscosity reads like this: (303.15 K, 101 kPa) 757 ± 46 mPa·s; (313.15 K, 101 kPa) 439 ± 23 mPa·s; (323.15 K, 101 kPa) 264 ± 12 mPa·s.

Source of the values: the CheMixHub viscosity set.
